According to patent US12466800B2, “N-((1,2,3,5,6,7-hexahydro-S-indacen-4-yl)carbamoyl)-4, 5, 6, 7-tetrahydrobenzofuran-2-sulfonamide derivatives and related compounds as NLPR3 modulators for the treatment of multiple sclerosis (MS)” (Zomagen Biosciences Ltd, priority 2019, dated 2025):

Test system: IL-1b
Assay: Mouse BMDM IL-1b Assay
Format: cell-based
Conditions: Macrophage; mouse bone marrow derived macrophages (C57BL6); 200 ng/mL LPS 3 h, compound 30 min, 5 mM ATP 45 min; IL-1b ELISA of supernatant
Experimental: Example 20: Mouse BMDM IL-1b Assay
Mouse bone marrow cells from C57BL6 tibia and femur were culture in complete Isocov's Media supplemented with 20 ng/mL MCSF (BMDM media) at a density of 50 million cells/15 cm Petri dish. Fresh media was changed every 3 days, and bone marrow derived macrophages were collected, washed, and counted on day 7. Cells were seeded into 96 well plates at a density of 5×10^4 cells per well in 100 uL of BMDM media and cultured overnight. The cells were stimulated at 37° C. with 200 ng/mL Ultrapure LPS-B5 for 3 hours before pre-diluted compounds were added. 30 minutes after compound addition, 5 mM ATP was added for the secondary stimulation for 45 minutes. After stimulation, the plates were briefly spun down, and 50 uL of supernatant was harvested from each well. ELISA for mouse IL-1b was performed with 1:10 and 1:100 diluted supernatant using pre-coated kits. IL-1b concentrations were calculated based on pre-titrated standards, and compound inhibition IC50 is generated using the Levenberg Marquardt damped lease-square method.

An IC50 of 0.1 to 1 µM was found for `CC(C)c1cccc(C(C)C)c1NC(=O)NS(=O)(=O)c1cc2c(o1)CCCC2=NO` [Compound 73, N-((2,6-diisopropylphenyl)carbamoyl)-4-(hydroxyimino)-4,5,6,7-tetrahydrobenzofuran-2-sulfonamide] in this work.
An IC50 of 1 to 10 µM was found for `CC(C)c1cccc(C(C)C)c1CC(=O)NS(=O)(=O)c1cc2c(o1)CCC(C)(C)C2O` (stereo not drawn) [Compound 74, 2-(2,6-diisopropylphenyl)-N-((4-hydroxy-5,5-dimethyl-4,5,6,7-tetrahydrobenzofuran-2-yl)sulfonyl)acetamide] in this work.
An IC50 of 1 to 10 µM was found for `CC(C)c1cccc(C(C)C)c1CC(=O)NS(=O)(=O)c1cc2c(o1)CCC(C)(C)C2(C)O` (stereo not drawn) [Compound 75, 2-(2,6-diisopropylphenyl)-N-((4-hydroxy-4,5,5-trimethyl-4,5,6,7-tetrahydrobenzofuran-2-yl)sulfonyl)acetamide] in this work.
An IC50 of 1 to 10 µM was found for `CC(C)c1cccc(C(C)C)c1CC(=O)NS(=O)(=O)c1cc2c(o1)CCC(C)(C)C2=O` [Compound 76, 2-(2,6-diisopropylphenyl)-N-((5,5-dimethyl-4-oxo-4,5,6,7-tetrahydrobenzofuran-2-yl)sulfonyl)acetamide] in this work.
An IC50 of 0.1 to 1 µM was found for `CC(C)c1cc(Cl)cc(C(C)C)c1NC(=O)NS(=O)(=O)c1cc2c(o1)CCC/C2=N/O` [Compound 77, (Z)-N-((4-chloro-2,6-diisopropylphenyl)carbamoyl)-4-(hydroxyimino)-4,5,6,7-tetrahydrobenzofuran-2-sulfonamide] in this work.
An IC50 of 1 to 10 µM was found for `CC(C)c1cc(Cl)cc(C(C)C)c1NC(=O)NS(=O)(=O)c1cc2c(o1)CCC/C2=N\O` [Compound 78, (E)-N-((4-chloro-2,6-diisopropylphenyl)carbamoyl)-4-(hydroxyimino)-4,5,6,7-tetrahydrobenzofuran-2-sulfonamide] in this work.
An IC50 of 0.1 to 1 µM was found for `CC(C)c1ccc(Cl)c(C(C)C)c1NC(=O)NS(=O)(=O)c1cc2c(o1)CCC/C2=N/O` [Compound 79, (Z)-N-((3-chloro-2,6-diisopropylphenyl)carbamoyl)-4-(hydroxyimino)-4,5,6,7-tetrahydrobenzofuran-2-sulfonamide] in this work.
An IC50 of 0.1 to 1 µM was found for `CC(C)c1ccc(Cl)c(C(C)C)c1NC(=O)NS(=O)(=O)c1cc2c(o1)CCC/C2=N\O` [Compound 80, (E)-N-((3-chloro-2,6-diisopropylphenyl)carbamoyl)-4-(hydroxyimino)-4,5,6,7-tetrahydrobenzofuran-2-sulfonamide] in this work.
An IC50 of 1 to 10 µM was found for `CC(C)c1cccc(C(C)C)c1NC(=O)NS(=O)(=O)c1cc2c(o1)CCC/C2=N\O` [Compound 81, (E)-N-((2,6-diisopropylphenyl)carbamoyl)-4-(hydroxyimino)-4,5,6,7-tetrahydrobenzofuran-2-sulfonamide] in this work.
An IC50 of 0.1 to 1 µM was found for `O=C(Nc1c2c(c(Br)c3c1CCC3)CCC2)NS(=O)(=O)c1cc2c(o1)CCC/C2=N/O` [Compound 82, (Z)-N-((8-bromo-1,2,3,4,5,6,7-hexahydro-s-indacen-4-yl)carbamoyl)-4-(hydroxyimino)-4,5,6,7-tetrahydrobenzofuran-2-sulfonamide] in this work.
An IC50 of under 0.1 µM was found for `O=C(Nc1c2c(c(Cl)c3c1CCC3)CCC2)NS(=O)(=O)c1cc2c(o1)CCC/C2=N/O` [Compound 83, (Z)-N-((8-chloro-1,2,3,5,6,7-hexahydro-s-indacen-4-yl)carbamoyl)-4-(hydroxyimino)-4,5,6,7-tetrahydrobenzofuran-2-sulfonamide] in this work.
An IC50 of 1 to 10 µM was found for `CC(C)N1CCCc2oc(S(=O)(=O)NC(=O)Nc3c4c(cc5c3CCC5)CCC4)cc2C1=O` [Compound 84, N-((1,2,3,5,6,7-hexahydro-s-indacen-4-yl)carbamoyl)-5-isopropyl-4-oxo-5,6,7,8-tetrahydro-4H-furo[3,2-c]azepine-2-sulfonamide] in this work.
An IC50 of 1 to 10 µM was found for `CC(C)c1cc(F)cc(C(C)C)c1NC(=O)NS(=O)(=O)c1cc2c(o1)CCC/C2=N/O` [Compound 85, (Z)-N-((4-fluoro-2,6-diisopropylphenyl)carbamoyl)-4-(hydroxyimino)-4,5,6,7-tetrahydrobenzofuran-2-sulfonamide] in this work.
An IC50 of 0.1 to 1 µM was found for `CC(C)c1cc(F)cc(C(C)C)c1NC(=O)NS(=O)(=O)c1cc2c(o1)CCC/C2=N\O` [Compound 86, (E)-N-((4-fluoro-2,6-diisopropylphenyl)carbamoyl)-4-(hydroxyimino)-4,5,6,7-tetrahydrobenzofuran-2-sulfonamide] in this work.
An IC50 of under 0.1 µM was found for `CN1CCCc2oc(S(=O)(=O)NC(=O)Nc3c4c(cc5c3CCC5)CCC4)cc2C1` [Compound 87, N-((1,2,3,5,6,7-hexahydro-s-indacen-4-yl)carbamoyl)-5-methyl-5,6,7,8-tetrahydro-4H-furo[3,2-c]azepine-2-sulfonamide] in this work.
An IC50 of under 0.1 µM was found for `C=CCC1(O)c2cc(S(=O)(=O)NC(=O)Nc3c4c(cc5c3CCC5)CCC4)oc2CCC1(C)C` (stereo not drawn) [Compound 88, 4-allyl-N-((1,2,3,5,6,7-hexahydro-s-indacen-4-yl)carbamoyl)-4-hydroxy-5,5-dimethyl-4,5,6,7-tetrahydrobenzofuran-2-sulfonamide] in this work.
An IC50 of under 0.1 µM was found for `O=C(Nc1c2c(c(F)c3c1CCC3)CCC2)NS(=O)(=O)c1cc2c(o1)CCC/C2=N/O` [Compound 89, (Z)-N-((8-fluoro-1,2,3,5,6,7-hexahydro-s-indacen-4-yl)carbamoyl)-4-(hydroxyimino)-4,5,6,7-tetrahydrobenzofuran-2-sulfonamide] in this work.
An IC50 of under 0.1 µM was found for `O=C(Nc1c2c(c(F)c3c1CCC3)CCC2)NS(=O)(=O)c1cc2c(o1)CCC/C2=N\O` [Compound 90, (E)-N-((8-fluoro-1,2,3,5,6,7-hexahydro-s-indacen-4-yl)carbamoyl)-4-(hydroxyimino)-4,5,6,7-tetrahydrobenzofuran-2-sulfonamide] in this work.
An IC50 of under 0.1 µM was found for `Cc1c(S(=O)(=O)NC(=O)Nc2c3c(cc4c2CCC4)CCC3)oc2c1C(=O)CCC2` [Compound 91, N-((1,2,3,5,6,7-hexahydro-s-indacen-4-yl)carbamoyl)-3-methyl-4-oxo-4,5,6,7-tetrahydrobenzofuran-2-sulfonamide] in this work.
An IC50 of under 0.1 µM was found for `Cc1c(S(=O)(=O)NC(=O)Nc2c3c(cc4c2CCC4)CCC3)oc2c1C(O)CCC2` (stereo not drawn) [Compound 92, N-((1,2,3,5,6,7-hexahydro-s-indacen-4-yl)carbamoyl)-4-hydroxy-3-methyl-4,5,6,7-tetrahydrobenzofuran-2-sulfonamide] in this work.
An IC50 of under 0.1 µM was found for `Cc1c(S(=O)(=O)NC(=O)Nc2c3c(cc4c2CCC4)CCC3)oc2c1C(C)(O)CCC2` (stereo not drawn) [Compound 93, N-((1,2,3,5,6,7-hexahydro-s-indacen-4-yl)carbamoyl)-4-hydroxy-3,4-dimethyl-4,5,6,7-tetrahydrobenzofuran-2-sulfonamide] in this work.
An IC50 of 0.1 to 1 µM was found for `CCOC(=O)CC1(C)CCCc2oc(S(=O)(=O)NC(=O)Nc3c4c(cc5c3CCC5)CCC4)c(C)c21` (stereo not drawn) [Compound 94, ethyl 2-(2-(N-((1,2,3,5,6,7-hexahydro-s-indacen-4-yl)carbamoyl)sulfamoyl)-3,4-dimethyl-4,5,6,7-tetrahydrobenzofuran-4-yl)acetate] in this work.
An IC50 of 0.1 to 1 µM was found for `O=C(Nc1c2c(c(Br)c3c1CCC3)CCC2)NS(=O)(=O)c1cc2c(o1)CCC/C2=N\O` [Compound 95, (E)-N-((8-bromo-1,2,3,5,6,7-hexahydro-s-indacen-4-yl)carbamoyl)-4-(hydroxyimino)-4,5,6,7-tetrahydrobenzofuran-2-sulfonamide] in this work.
An IC50 of 0.1 to 1 µM was found for `O=C(Nc1c2c(c(Cl)c3c1CCC3)CCC2)NS(=O)(=O)c1cc2c(o1)CCC/C2=N\O` [Compound 96, (E)-N-((8-chloro-1,2,3,5,6,7-hexahydro-s-indacen-4-yl)carbamoyl)-4-(hydroxyimino)-4,5,6,7-tetrahydrobenzofuran-2-sulfonamide] in this work.
An IC50 of 0.1 to 1 µM was found for `CC(C)c1ccc(F)c(C(C)C)c1NC(=O)NS(=O)(=O)c1cc2c(o1)CCC/C2=N/O` [Compound 97, (Z)-N-((3-fluoro-2,6-diisopropylphenyl)carbamoyl)-4-(hydroxyimino)-4,5,6,7-tetrahydrobenzofuran-2-sulfonamide] in this work.
An IC50 of 0.1 to 1 µM was found for `CC(C)c1ccc(F)c(C(C)C)c1NC(=O)NS(=O)(=O)c1cc2c(o1)CCC/C2=N\O` [Compound 98, (E)-N-((3-fluoro-2,6-diisopropylphenyl)carbamoyl)-4-(hydroxyimino)-4,5,6,7-tetrahydrobenzofuran-2-sulfonamide] in this work.
An IC50 of 0.1 to 1 µM was found for `Cc1c(S(=O)(=O)NC(=O)Nc2c3c(cc4c2CCC4)CCC3)oc2c1/C(=N\O)CCC2` [Compound 99, (Z)-N-((1,2,3,5,6,7-hexahydro-s-indacen-4-yl)carbamoyl)-4-(hydroxyimino)-3-methyl-4,5,6,7-tetrahydrobenzofuran-2-sulfonamide] in this work.
An IC50 of 1 to 10 µM was found for `CC(C)c1c(F)c(Cl)c(F)c(C(C)C)c1NC(=O)NS(=O)(=O)c1cc2c(o1)CCC/C2=N/O` [Compound 100, (Z)-N-((4-chloro-3,5-difluoro-2,6-diisopropylphenyl)carbamoyl)-4-(hydroxyimino)-4,5,6,7-tetrahydrobenzofuran-2-sulfonamide] in this work.
An IC50 of 0.1 to 1 µM was found for `CC(C)c1c(F)c(Cl)c(F)c(C(C)C)c1NC(=O)NS(=O)(=O)c1cc2c(o1)CCC/C2=N\O` [Compound 101, (E)-N-((4-chloro-3,5-difluoro-2,6-diisopropylphenyl)carbamoyl)-4-(hydroxyimino)-4,5,6,7-tetrahydrobenzofuran-2-sulfonamide] in this work.
An IC50 of 0.1 to 1 µM was found for `CC(C)c1c(F)c(Cl)c(F)c(C(C)C)c1NC(=O)NS(=O)(=O)c1cc2c(o1)CCCC2O` (stereo not drawn) [Compound 102, N-((4-chloro-3,5-difluoro-2,6-diisopropylphenyl)carbamoyl)-4-hydroxy-4,5,6,7-tetrahydrobenzofuran-2-sulfonamide] in this work.
